In patent US10870634B2, “Histone demethylase inhibitors” (CELGENE QUANTICEL RESEARCH, INC., priority 2016, dated 2020):

target: T1, JMJD2C (Homo sapiens, UniProt Q9H3R0); test: JMJD2C in vitro enzyme inhibition assay (TR-FRET); assay type: biochemical; details: 0.3 nM JMJD2C, 300 nM H3K9me3-biotin peptide, 2 μM alpha-ketoglutaric acid
T1 construct: purchased BPS Bioscience 50105
T1 sequence (Q9H3R0 2-372): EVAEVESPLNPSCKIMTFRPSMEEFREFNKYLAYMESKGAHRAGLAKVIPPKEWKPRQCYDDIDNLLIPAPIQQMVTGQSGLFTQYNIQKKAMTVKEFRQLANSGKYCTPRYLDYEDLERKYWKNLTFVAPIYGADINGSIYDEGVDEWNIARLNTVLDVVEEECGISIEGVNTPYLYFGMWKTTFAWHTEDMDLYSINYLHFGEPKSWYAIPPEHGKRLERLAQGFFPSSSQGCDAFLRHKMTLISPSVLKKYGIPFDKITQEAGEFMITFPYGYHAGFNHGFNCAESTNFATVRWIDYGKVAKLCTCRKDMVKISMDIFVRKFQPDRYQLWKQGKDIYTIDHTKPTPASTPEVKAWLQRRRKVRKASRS
From the text: This assay determines the ability of a test compound to inhibit Jarid1B, JMJD2C and JMJD3 demethylase activity. Baculovirus-expressed Jarid1B (GenBank Accession # NM-006618, AA 2-751) was purchased from BPS Bioscience (Cat #50121) or custom made by MolecularThroughput. Baculovirus-expressed JMJD2C (GenBank Accession # BC143571, AA 2-372) was purchased from BPS Bioscience (Cat #50105). Baculovirus-expressed JMJD3 (GenBank Accession # NM_001080424, AA1043-end) was purchased from BPS Bioscience (Cat #50115).
The ability of test compounds to inhibit the activity of JMJD2C was determined in 384-well plate format under the following reaction conditions: 0.3 nM JMJD2C, 300 nM H3K9me3-biotin labeled peptide (Anaspec cat #464360), 2 μM alpha-ketoglutaric acid in assay buffer of 50 mM HEPES, pH 7.3, 0.005% Brij35, 0.5 mM TCEP, 0.2 mg/ml BSA, 50 μM sodium L-ascorbate, and 2 μM ammonium ironll sulfate. Reaction product was determined quantitatively by TR-FRET after the addition of detection reagent Phycolink Streptavidin-allophycocyanin (Prozyme) and Europium-anti-di-methylated histone H3 lysine 9 (H3K9me2) antibody (PerkinElmer) in the presence of 5 mM EDTA in LANCE detection buffer (PerkinElmer) at a final concentration of 50 nM and 1 nM, respectively.
The assay reaction was initiated by the following: 2 μl of the mixture of 900 nM H3K9me3-biotin labeled peptide and 6 μM alpha-ketoglutaric acid with 2 μl of 11-point serial diluted inhibitor in 3% DMSO were added to each well of the plate, followed by the addition of 2 μl of 0.9 nM JMJD2C to initiate the reaction. […] Plates were read by EnVisionMultilabel Reader in TR-FRET mode (excitation at 320 nm, emission at 615 nm and 665 nm) after 1 hr incubation at RT. A ratio was calculated (665/615) for each well and fitted to determine inhibition constant (IC50).
The ability to inhibit demethylase activity was quantified and the respective IC50 value was determined for substituted triazolylpyridine derivative compounds. […]

IC50 [µM] | Structure (SMILES)
> 10 | Fc1cnccc1-c1nn[nH]c1C(F)(F)F [Example 1, 3-fluoro-4-[5-(trifluoromethyl)-1H-1,2,3-triazol-4-yl]pyridine]
> 10 | Fc1ccc(Cl)cc1Nc1cnccc1-c1nn[nH]c1C(F)(F)F [Example 2, N-(5-chloro-2-fluorophenyl)-4-[5-(trifluoromethyl)-1H-1,2,3-triazol-4-yl]pyridin-3-amine]
> 10 | FC(F)(F)c1[nH]nnc1-c1ccncc1NCC1CCCc2ccccc21 (stereo not drawn) [Example 3, N-[(1,2,3,4-tetrahydronaphthalen-1-yl)methyl]-4-[5-(trifluoromethyl)-1H-1,2,3-triazol-4-yl]pyridine-3-amine]
